Patent US9226517B2, “Use of iminocyclitols as inhibitors of bacterial adherence to epithelial cells” (Taihua Shouyue (Hong Kong) International Co Limited, priority 2010, dated 2016)
“And” between values parts separate entries of the source, which are not always exact repeats. Equal entries are not always repeated.

Columns and labels:
S. mutans = conditions: Islam et al. 2008; compound isolated from M. alba; cited from earlier work
Streptococcus mutans [1] = test: Bacterial agglutination assay; format: cell-based
Protocol: (§1) Bacteria used in the assay were Escherichia coli, Salmonella tphimurium and Streptococcus mutans, from over night cultures. The bacteria were inoculated in the 100 ml flask with Luria medium. The bacteria were grown for 24 h at 37° C. After incubation, Agar Luria medium plates were inoculated. After 24 h suspensions of each strain were prepared in PBS medium (10^8 CFU/ml). Serial dilutions of the products to be tested, D-fagomine and D-fagomine tartrate (20 ppm, 200 ppm, 2000 ppm) were made. The dilutions were mixed with bacterial suspensions in a 1:1 ratio. After 90 min. at room temperature the suspensions were observed under optical microscope. They were compared with the control culture without any product added.
(§2) Bacteria used in the assay were Escherichia coli, Salmonella tphimurium, Streptococcus mutans, Lactobacillus casei and Bifidobacterium sp., from over night cultures. The bacteria were inoculated in the 100 ml flask with Luria medium. The bacteria were grown for 24 h at 37° C. After incubation, Agar Luria medium plates were inoculated. After 24 h suspensions of each strain were prepared in PBS medium (10^8 CFU/ml). Serial dilutions of the product to be tested, D-fagomine tartrate (10 ppm, 20 ppm, 2000 ppm) were made. The dilutions were mixed with bacterial suspensions in a 1:1 ratio. After 90 min. at room temperature the suspensions were observed under optical microscope. They were compared with the control culture without any product added. The Escherichia coli and Salmonella tphimurium were compared with a positive control culture (mannose 0.05M).

Escherichia coli [2] = test: Bacterial agglutination assay; format: cell-based; conditions: for agglutination relative to the corresponding positive control: positive control mannose 0.05M
Protocol: as §1, §2

Salmonella tphimurium = test: Bacterial agglutination assay; format: cell-based; conditions: for agglutination relative to the corresponding positive control: positive control mannose 0.05M
Protocol: as §1, §2

Bifidobacterium sp. = test: Bacterial agglutination assay; format: cell-based; conditions: Example 2; 90 min room temperature
Protocol: as §2

Lactobacillus casei = test: Bacterial agglutination assay; format: cell-based; conditions: Example 2; 90 min room temperature
Protocol: as §2

Streptococcus mutans [3] = test: Glass surface adherence assay; format: cell-based; conditions: for G/MG (Glass/Mannose glass): vs mannose 0.05 M
Protocol: Glass surface adherence assay was performed. The bacterium used in the assay was Streptococcus mutans from over night cultures (1 10^10 UCF/ml). The bacterium was grown for 18 h at 37° C. in PBS medium. The bacteria from the overnight culture (0.25 ml) were grown for 18 h at […] in a glass dish with the specific medium (0.5 ml). After the 18 h, 0.25 ml of D-fagomine (10 ppm, 20 ppm and 40 ppm) was added. In the control plate was added only PBS. After 90 min. the cells were transfered (0.5 ml) to a falcon tube, then were washed two times with PBS (0.5 ml each time). The wash of each bacteria was collected in a falcon tube and was kept at 4° C. The cells (100 μl) were seeded in the plates in TSA medium. The cells adhered were scrapped. In each well, it was added 0.5 ml of sterile PBS. The plaques with 100 μl were inoculated. The plaques were counted.

[4] = Castillo et al., Organic Letter 2006; cited from earlier work
Bifidobacterium = test: Adhesion to mucus; format: cell-based
Protocol: (§3) • Adhesion to mucus. Protocol Day 1
(§4) The bacteria was inoculated in the tube with 3 ml Luria medium. The bacteria were grown for 24 h at 37° C. The tube was incubated overnight (1 10^7-1 10^8 UCF/ml).
(§5) The mucus (1 ml) is defrosted at room temperature. 100 ml of PBS medium was prepared. The defrosted mucus (1 ml) was centrifuged at 8000 rpm for 10 minutes. The mucus (1 ml) was transferred to an aliquot with sterile PBS (99 ml). Each well is inoculated with 2.5 ml from the mixture and the plate is kept in the fridge (4° C.) overnight.
(§6) The plate was taken out from the fridge an the wash was made. 2 ml was extracted from each well. PBS (1 ml) was added, then was extracted, at the end there was 0.5 ml in the well.
(§7) The tubes that were grown overnight, were diluted (1 10^7 UCF/ml).
(§8) The final volume in each well was: PBS 0.5 ml plus bacterial suspension 0.5 ml plus D-fagomine 0.5 ml (or PBS in control case). It was prepared 2 plates (duplicated strains). Product concentration in the wells (10 ppm, 20 ppm, 40 pppm). Mannose concentration 0.05M (control well). The wells were inoculated and the plates were incubated at 37° C. for 90 minutes. After the 90 minutes, the supernatant of each well (10 μl) were observed under optical microscope. It was added 1 ml of each well in eppendorfs. The eppendords were kept on the fridge. Two wash were made with PBS. The wells washes of the same strain were recoleted in a falcon tube and they were kept at 4° C. PBS (1 ml) was added in each well and the plates were inoculated with 100 μl of each tubes at the adecuated dilutions.
(§9) The plates were recounted

[5] = tested on: Lactobacillus acidophilus; test: Adhesion to mucus; format: cell-based
Protocol: as §3, §4, §5, §6, §7, §8, §9

Salmonella = test: Adhesion to mucus (mucosal epitelial cells); format: cell-based
Protocol: (§10) • Mucus: mucosal epitelial cells • Adhesion to mucus. Protocol Day 1
(§11) The bacteria was inoculated in the tube, with 3 ml Luria medium. The bacteria were grown for 24 h at 37° C. The tube was incubated overnight (1 10^8-1 10^9 UCF/ml).
(§12) The mucus (1 ml) is defrosted at room temperature. PBS medium (100 ml) was prepared. The defrosted mucus was centrifuged at 8000 rpm for 10 minutes. The mucus (1 ml) was transferred to an aliquot with sterile PBS (99 ml) (1:100). Each well is inoculated with 2.5 ml from the mixture and the plate is kept in the fridge (4° C.) overnight.
(§13) The plate was taken out from the fridge. 2 ml was extracted from each well. PBS (1 ml) was added, then was extracted, at the end there was 0.5 ml in the well.
(§14) The tubes that were grown overnight were diluted (1 10^7 UCF/ml).
(§15) The final volume in each well was: PBS 0.5 ml plus bacterial suspension 0.5 ml plus D-fagomine 0.5 ml (or PBS in control case).
(§16) Two plates were prepared (duplicated strains). Product concentration in the wells (10 ppm, 20 ppm, 40 pppm). Mannose concentration 0.05M (control well).
(§17) The wells were inoculated and the plates were incubated at 37° C. for 90 minutes.
(§18) After the 90 minutes, the supernatant of each well (10 μl) were observed under optical microscope.
(§19) It was added 1 ml of each well in eppendorfs. The eppendords were kept on the fridge. Two wash were made with PBS. The wells washed of the same strain were recoleted in a falcon tube and they were kept at 4° C. PBS (1 ml) was added in each well and the plates were inoculated with 100 μl of each tubes at the adecuated dilutions.
as §9

Escherichia coli [6] = test: Adhesion to mucus (mucosal epitelial cells); format: cell-based; conditions: for Bacteria in supernatant: duplicates 1 and 2
Protocol: as §10, §11, §12, §13, §14, §15, §16, §17, §18, §19, §9

[7] = Example 1, 20 ppm, 200 ppm and 2000 ppm, 90 min room temperature, vs control culture
[8] = Example 2, 20 ppm and 200 ppm, 90 min room temperature
[9] = D-fagomine 40 ppm, duplicates 1 and 2
[10] = independently of the D-fagomine concentration (10, 20, 40 ppm)

In the case of `OC[C@H]1NC[C@H](O)[C@@H](O)[C@@H]1O` [1-deoxynojirimycin], the “anti-microbial activity against S. mutans” value (S. mutans) is listed as “anti-microbial activity”.

In the case of `O=C(O)C(O)C(O)C(=O)O.OC[C@H]1NCC[C@@H](O)[C@@H]1O` [D-fagomine tartrate], the “agglutination of the cells (optical microscope)” value (from here on “agglutination of the cells”) (Streptococcus mutans [1]; [7]) was “agglutinated”, the “agglutination of the cells” value (Streptococcus mutans [1]; Example 2, 10 ppm) was “not at 10 ppm” and the “agglutination of the cells” value (Streptococcus mutans [1]; [8]) was “agglutinated”. The “agglutination relative to the corresponding positive control” value (Escherichia coli [2]; 20 ppm) was “about 60%”, the “agglutination relative to the corresponding positive control” value (Escherichia coli [2]; 200 ppm) was “about 70%” and the “agglutination of the cells” value (Escherichia coli [2]; [7]) was “agglutinated”. For the same compound, the “agglutination of the cells” value (Escherichia coli [2]; Example 2, 10 ppm) was “not at 10 ppm”, the “agglutination of the cells” value (Escherichia coli [2]; [8]) was “agglutinated” and the “agglutination relative to the corresponding positive control” value (Salmonella tphimurium; 20 ppm) was “about 60%”. For the same compound, the “agglutination relative to the corresponding positive control” value (Salmonella tphimurium; 200 ppm) was “about 70%”, the “agglutination of the cells” value (Salmonella tphimurium; [7]) was “agglutinated” and the “agglutination of the cells” value (Salmonella tphimurium; Example 2, 10 ppm) was “not at 10 ppm”. The “agglutination of the cells” value (Salmonella tphimurium; [8]) was “agglutinated”, the “agglutination of the cells” value (Bifidobacterium sp.) was “not agglutinated” and the “agglutination of the cells” value (Lactobacillus casei) was “not agglutinated”.

In the case of `OC[C@H]1NCC[C@@H](O)[C@@H]1O` [D-fagomine, (2R, 3R, 4R)-2-hydroxymethylpiperidine-3,4-diol], the “antiadherence activity in respect of the control” value (Streptococcus mutans [3]; 10 ppm, 20 ppm and 40 ppm) was “has antiadherence activity”, the “PG/CG (Product glass/Control glass without product)” value (Streptococcus mutans [3]; D-fagomine 10 ppm) was 1.60 and the “G/MG (Glass/Mannose glass)” value (Streptococcus mutans [3]; D-fagomine 10 ppm) was 1.60. For the same compound, the “G/MG (Glass/Mannose glass)” value (Streptococcus mutans [3]; D-fagomine 20 ppm) was 1.35, the antimicrobial activity [4] was “do not show antimicrobial activity” and the “Product M/Control M” value (Bifidobacterium; D-fagomine 20 ppm) was 1.14. For the same compound, the “Product M/Control M” value (Bifidobacterium; D-fagomine 40 ppm) was 3.50, the “M/Manose M” value ([5]; D-fagomine 10 ppm) was 1.31 and the “Product M/Control M” value ([5]; D-fagomine 10 ppm) was 5.58. The “M/Manose M” value ([5]; D-fagomine 20 ppm) was 1.31, the “Product M/Control M” value ([5]; D-fagomine 20 ppm) was 5.58 and the “Product M/Control M” value ([5]; D-fagomine 40 ppm) was 3.94. The “agglutination of the cells” value (Streptococcus mutans [1]; [7]) was “agglutinated”, the “agglutination of the cells” value (Escherichia coli [2]; [7]) was “agglutinated” and the “agglutination of the cells” value (Salmonella tphimurium; [7]) was “agglutinated”. The Bacteria in supernatant (Salmonella; D-fagomine 10 ppm, duplicates 1 and 2) was 78.4% and 91.8%, the Bacteria in supernatant (Salmonella; D-fagomine 20 ppm, duplicates 1 and 2) was 98.2% and 95.5% and the Bacteria in supernatant (Salmonella; [9]) was 98.2% and 84.1%. For the same compound, the Supernatant/mucus (Salmonella; [9]) was 5.27 UCF/ml, the “agglutination of microorganisms with the mucus” value (Salmonella; [10]) was “not agglutinated with the mucus” and the Bacteria in supernatant (Escherichia coli [6]; D-fagomine 10 ppm) was 94.5% and 95.1%. For the same compound, the Bacteria in supernatant (Escherichia coli [6]; D-fagomine 20 ppm) was 96.3% and 99.0%, the Bacteria in supernatant (Escherichia coli [6]; D-fagomine 40 ppm) was 99.2% and 98.6% and the “agglutination of microorganisms with the mucus” value (Escherichia coli [6]; [10]) was “not agglutinated with the mucus”.
